Earlier results on one molecule are cited in patent US7611715B2, “Agaricus extract for preventing the induction or metastasis of cancer” (SSI Co., Ltd., priority 2002, dated 2009).

For the data set the following is noted: calculated.

For `CCOC(N)=O` [Urethane, ethyl carbamate], the safety dose (virtually safe dose, VSD) in human for liver cancer was 7.2e-05 mg/kg body weight.
